This is an account of results in PMC5350573 (Redox Biology, 2017).

Format in all cases: biochemical
Assay [1] addresses T1, catalase (Bos taurus, UniProt P00432).
T1 sequence (P00432 2-527): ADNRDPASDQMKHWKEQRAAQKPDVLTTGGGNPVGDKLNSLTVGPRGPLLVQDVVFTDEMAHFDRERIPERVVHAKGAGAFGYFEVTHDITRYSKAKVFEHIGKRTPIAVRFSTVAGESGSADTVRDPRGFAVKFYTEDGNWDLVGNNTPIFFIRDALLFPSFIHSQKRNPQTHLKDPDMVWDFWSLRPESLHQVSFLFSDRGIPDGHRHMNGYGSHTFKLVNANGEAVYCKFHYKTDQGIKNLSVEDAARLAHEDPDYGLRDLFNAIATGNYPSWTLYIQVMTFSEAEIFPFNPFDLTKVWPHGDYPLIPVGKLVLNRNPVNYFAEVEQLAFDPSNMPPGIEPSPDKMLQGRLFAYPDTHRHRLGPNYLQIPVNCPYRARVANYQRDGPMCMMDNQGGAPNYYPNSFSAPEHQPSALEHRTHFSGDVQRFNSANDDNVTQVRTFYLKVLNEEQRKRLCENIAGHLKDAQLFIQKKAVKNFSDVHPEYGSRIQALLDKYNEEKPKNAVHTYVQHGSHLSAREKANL
In words: amperometric H2S release from SO2.

For assay [2], the target named is T1, catalase. In words: amperometric. Particulars: read-out: % increase at 400 μM.
Assay [3] has as its target T1, catalase. Kind of assay: amperometric H2S release from DTT by isolated catalase.

Each structure is given as a SMILES string.

`O=S=O` [SO2, sulfur dioxide]: the EC50 result on catalase [1] is “~ between 300 μM and 1 mM”.

`NC(=O)C1=CN([C@@H]2O[C@H](COP(=O)(O)OP(=O)(O)OC[C@H]3O[C@@H](n4cnc5c(N)ncnc54)[C@H](OP(=O)(O)O)[C@@H]3O)[C@@H](O)[C@H]2O)C=CC1` [NADPH]: on catalase [2], the activation at 400 µM was roughly 50%.

In the case of `O[C@H](CS)[C@H](O)CS` (racemic) [DTT, dithiothreitol], at catalase [3], the “amperometric H2S release from DTT by isolated catalase” value is listed as “catalase concentration-dependent increase in H2S release (Fig. 7B) confirming that catalase reacts directly with DTT to generate H2S”.
